Data: ChEMBL document CHEMBL4651402, “Screening of ~5500 FDA-approved drugs and clinical candidates for anti-SARS-CoV-2 activity” (2021)
Counter-ions that a name gives are not always drawn.

Tested on: SARS-CoV-2
Test: microbe, parasite or virus in culture
Settings: Severe acute respiratory syndrome coronavirus 2, Vero C1008, 48 h

What does the source list for CNCCCC1(C)C(=O)N(c2ccccc2)c2ccccc21 (stereo not given) [AMEDALIN]?
IC50: > 20 µM; IC50 (read-out: pIC50 (converted)): > 20 µM

Which results are given for Nc1c(CC(=O)O)cccc1C(=O)c1ccccc1 [AMFENAC]?
IC50: > 20 µM; IC50 (read-out: pIC50 (converted)): > 20 µM

Which results are given for CCn1cc(C(=O)O)c(=O)c2ccc(Cc3ccccc3)nc21 [AMFONELIC ACID]?
IC50: > 20 µM; IC50 (read-out: pIC50 (converted)): > 20 µM

With NC(=O)Nc1ccc(S(=O)(=O)c2ccc(N)cc2)cc1 [AMIDAPSONE] as the molecule, how does the IC50 read?
The IC50 was greater than 20 µM.

And the IC50 (read-out: pIC50 (converted))?
The IC50 was greater than 20 µM.

What does the source list for CNCC(O)c1cccc(NS(C)(=O)=O)c1 (stereo not given) [AMIDEPHRINE MESYLATE]?
IC50: > 20 µM; IC50 (read-out: pIC50 (converted)): > 20 µM

What does the source list for Nc1ccncc1N [AMIFAMPRIDINE]?
IC50: > 20 µM; IC50 (read-out: pIC50 (converted)): > 20 µM

For CNn1cc(C(=O)O)c(=O)c2cc(F)c(N3CCN(C)CC3)cc21 [AMIFLOXACIN], which IC50 is on record?
The IC50 was greater than 20 µM.

And the IC50 (read-out: pIC50 (converted))?
Its IC50 is greater than 20 µM.

How did the IC50 turn out when N=C(N)NC(=O)c1nc(Cl)c(N)nc1N [AMILORIDE] was run?
The IC50 was greater than 50.1 µM.

What about the IC50 (read-out: pIC50 (converted)) of the same molecule?
Its IC50 is greater than 50.1 µM.

Which results are given for Nc1c2ccccc2nc2ccccc12 [AMINACRINE]?
IC50: > 20 µM; IC50 (read-out: pIC50 (converted)): > 20 µM

What does the source list for Nc1ccc(C(=O)O)cc1 [AMINOBENZOIC ACID]?
IC50: > 20 µM; IC50 (read-out: pIC50 (converted)): > 20 µM

For NCCCCCC(=O)O [AMINOCAPROIC ACID], which IC50 is on record?
Its IC50 is greater than 20 µM.

What about the IC50 (read-out: pIC50 (converted)) of the same molecule?
The IC50 was greater than 20 µM.

For CCC1(c2ccc(N)cc2)CCC(=O)NC1=O (stereo not given) [AMINOGLUTETHIMIDE], which IC50 is on record?
The IC50 was greater than 20 µM.

And the IC50 (read-out: pIC50 (converted))?
The IC50 was greater than 20 µM.

With Nc1ccc(C(=O)NCC(=O)O)cc1 [AMINOHIPPURIC ACID] as the molecule, how does the IC50 read?
Its IC50 is greater than 20 µM.

What about the IC50 (read-out: pIC50 (converted)) of the same molecule?
The IC50 was greater than 20 µM.

NCC(=O)CCC(=O)O [AMINOLEVULINIC ACID] was tested. Which IC50 did it give?
The IC50 was greater than 20 µM.

What about the IC50 (read-out: pIC50 (converted)) of the same molecule?
The IC50 was greater than 20 µM.

C=CCn1c(N)cc(=O)n(CC)c1=O [AMINOMETRADINE] was tested. Which IC50 did it give?
Its IC50 is greater than 20 µM.

And the IC50 (read-out: pIC50 (converted))?
Its IC50 is greater than 20 µM.

Which IC50 does the source give for CC(CC(C(N)=O)(c1ccccc1)c1ccccc1)N(C)C (stereo not given) [AMINOPENTAMIDE SULFATE] here?
The IC50 was greater than 20 µM.

And the IC50 (read-out: pIC50 (converted))?
Its IC50 is greater than 20 µM.

For CN(C)CC(CN1c2ccccc2Sc2ccccc21)N(C)C (stereo not given) [AMINOPROMAZINE], which IC50 is on record?
Its IC50 is greater than 20 µM.

And the IC50 (read-out: pIC50 (converted))?
The IC50 was greater than 20 µM.

With Nc1nc(N)c2nc(CNc3ccc(C(=O)N[C@@H](CCC(=O)O)C(=O)O)cc3)cnc2n1 [AMINOPTERIN] as the molecule, how does the IC50 read?
The IC50 was greater than 20 µM.

And the IC50 (read-out: pIC50 (converted))?
The IC50 was greater than 20 µM.

Cc1c(N(C)C)c(=O)n(-c2ccccc2)n1C [AMINOPYRINE] was tested. Which IC50 did it give?
The IC50 was greater than 20 µM.

What about the IC50 (read-out: pIC50 (converted)) of the same molecule?
The IC50 was greater than 20 µM.

How did the IC50 turn out when NC1=NCC(c2ccccc2)O1 (stereo not given) [AMINOREX] was run?
The IC50 was greater than 100 µM.

And the IC50 (read-out: pIC50 (converted))?
The IC50 was greater than 100 µM.

What does the source list for Nc1ccc(C(=O)O)c(O)c1 [AMINOSALICYLIC ACID]?
IC50: > 20 µM; IC50 (read-out: pIC50 (converted)): > 20 µM

What does the source list for Nc1nccs1 [AMINOTHIAZOLE]?
IC50: > 20 µM; IC50 (read-out: pIC50 (converted)): > 20 µM

For Nc1nc(N)c(-c2ccccc2)s1 [AMIPHENAZOLE], which IC50 is on record?
Its IC50 is greater than 20 µM.

And the IC50 (read-out: pIC50 (converted))?
The IC50 was greater than 20 µM.

With CN(C)CCCO[C@@H]1[C@H]2OC(C)(C)O[C@H]2O[C@@H]1[C@H](O)CO [AMIPRILOSE] as the molecule, how does the IC50 read?
Its IC50 is greater than 20 µM.

And the IC50 (read-out: pIC50 (converted))?
The IC50 was greater than 20 µM.

Which results are given for C=C(C)Cn1c(N)cc(=O)n(C)c1=O [AMISOMETRADINE]?
IC50: > 20 µM; IC50 (read-out: pIC50 (converted)): > 20 µM

How did the IC50 turn out when CCN1CCCC1CNC(=O)c1cc(S(=O)(=O)CC)c(N)cc1OC (stereo not given) [AMISULPRIDE] was run?
Its IC50 is greater than 20 µM.

What about the IC50 (read-out: pIC50 (converted)) of the same molecule?
The IC50 was greater than 20 µM.

CC(=O)Nc1ccc(/C=N/NC(N)=S)cc1 [AMITHIOZONE] was tested. Which IC50 did it give?
The IC50 was greater than 20 µM.

What about the IC50 (read-out: pIC50 (converted)) of the same molecule?
The IC50 was greater than 20 µM.

Which results are given for CN(C)CCC=C1c2ccccc2CCc2ccccc21 [AMITRIPTYLINE]?
IC50: > 20 µM; IC50 (read-out: pIC50 (converted)): > 20 µM

CCOC(=O)C1=C(COCCN)NC(C)=C(C(=O)OC)C1c1ccccc1Cl (stereo not given) [AMLODIPINE] was tested. Which IC50 did it give?
Its IC50 is greater than 20 µM.

What about the IC50 (read-out: pIC50 (converted)) of the same molecule?
Its IC50 is greater than 20 µM.

Which IC50 does the source give for CCC1(CCC(C)C)C(=O)NC(=O)NC1=O [AMOBARBITAL] here?
The IC50 was greater than 20 µM.

What about the IC50 (read-out: pIC50 (converted)) of the same molecule?
Its IC50 is greater than 20 µM.

How did the IC50 turn out when CCN(CC)Cc1cc(Nc2ccnc3cc(Cl)ccc23)ccc1O [AMODIAQUINE] was run?
Its IC50 is greater than 20 µM.

And the IC50 (read-out: pIC50 (converted))?
The IC50 was greater than 20 µM.

With COc1cc(C(=O)OC(COCCC(C)C)CN2CCOCC2)cc(OC)c1OC (stereo not given) [AMOPROXAN] as the molecule, how does the IC50 read?
The IC50 was greater than 20 µM.

What about the IC50 (read-out: pIC50 (converted)) of the same molecule?
Its IC50 is greater than 20 µM.

How did the IC50 turn out when CCC(C)(C)c1ccc(CC(C)CN2C[C@@H](C)O[C@@H](C)C2)cc1 (stereo not given in full) [AMOROLFINE] was run?
The IC50 was greater than 20 µM.

What about the IC50 (read-out: pIC50 (converted)) of the same molecule?
Its IC50 is greater than 20 µM.

Which results are given for Clc1ccc2c(c1)C(N1CCNCC1)=Nc1ccccc1O2 [AMOXAPINE]?
IC50: > 20 µM; IC50 (read-out: pIC50 (converted)): > 20 µM

Which IC50 does the source give for CC1(C)S[C@@H]2[C@H](NC(=O)[C@H](N)c3ccc(O)cc3)C(=O)N2[C@H]1C(=O)O [AMOXICILLIN] here?
The IC50 was greater than 20 µM.

What about the IC50 (read-out: pIC50 (converted)) of the same molecule?
The IC50 was greater than 20 µM.

CCNC(=O)N1CCN(CCCC(c2ccc(F)cc2)c2ccc(F)cc2)CC1 [AMPEROZIDE] was tested. Which IC50 did it give?
Its IC50 is greater than 20 µM.

What about the IC50 (read-out: pIC50 (converted)) of the same molecule?
The IC50 was greater than 20 µM.

Which IC50 does the source give for CC1(C)S[C@@H]2[C@H](NC(=O)[C@H](N)c3ccccc3)C(=O)N2[C@H]1C(=O)O [AMPICILLIN] here?
The IC50 was greater than 20 µM.

What about the IC50 (read-out: pIC50 (converted)) of the same molecule?
The IC50 was greater than 20 µM.

Which IC50 does the source give for CCOC(=O)OC(C)OC1=C(C(=O)Nc2ccccn2)N(C)S(=O)(=O)c2ccccc21 (stereo not given) [AMPIROXICAM] here?
Its IC50 is greater than 20 µM.

What about the IC50 (read-out: pIC50 (converted)) of the same molecule?
Its IC50 is greater than 20 µM.

With CCN(CC)CC(C)(C)COC(=O)C(CO)c1ccccc1 (stereo not given) [AMPROTROPINE] as the molecule, how does the IC50 read?
The IC50 was greater than 20 µM.

And the IC50 (read-out: pIC50 (converted))?
The IC50 was greater than 20 µM.

For CCCc1cc2c(O)c(C(=O)OC)cnc2cc1N(CC)CC [AMQUINATE], which IC50 is on record?
The IC50 was greater than 20 µM.

And the IC50 (read-out: pIC50 (converted))?
Its IC50 is greater than 20 µM.
